Values quoted from earlier work in US6183992A, “Method for mass production of antimicrobial peptide” (Samyang Genex Corporation, priority 1997, dated 2001).
Ends that are not written are not given here.

Conditions: Table 1, excerpted from Peptide Science, Vol 37, 105-122 (1995)

Compound	pI
CC[C@H](C)[C@H](N)C(=O)N[C@@H](CC(C)C)C(=O)N1CCC[C@H]1C(=O)N[C@@H](Cc1c[nH]c2ccccc12)C(=O)N[C@@H](CCCCN)C(=O)N[C@@H](Cc1c[nH]c2ccccc12)C(=O)N1CCC[C@H]1C(=O)N[C@@H](Cc1c[nH]c2ccccc12)C(=O)N[C@@H](Cc1c[nH]c2ccccc12)C(=O)N1CCC[C@H]1C(=O)N[C@@H](Cc1c[nH]c2ccccc12)C(=O)N[C@@H](CCCNC(=N)N)C(=O)N[C@@H](CCCNC(=N)N)C(N)=O [Indolicidin]	12.51
CC[C@H](C)[C@H](NC(=O)CN)C(=O)NCC(=O)N[C@@H](C)C(=O)N[C@H](C(=O)N[C@@H](CC(C)C)C(=O)N[C@@H](CCCCN)C(=O)N[C@H](C(=O)N[C@@H](CC(C)C)C(=O)N[C@H](C(=O)N[C@H](C(=O)NCC(=O)N[C@@H](CC(C)C)C(=O)N1CCC[C@H]1C(=O)N[C@@H](C)C(=O)N[C@@H](CC(C)C)C(=O)N[C@H](C(=O)N[C@@H](CO)C(=O)N[C@@H](Cc1c[nH]c2ccccc12)C(=O)N[C@H](C(=O)N[C@@H](CCCCN)C(=O)N[C@@H](CCCNC(=N)N)C(=O)N[C@@H](CCCCN)C(=O)N[C@@H](CCCNC(=N)N)C(=O)N[C@@H](CCC(N)=O)C(=O)N[C@@H](CCC(N)=O)C(N)=O)[C@@H](C)CC)[C@@H](C)CC)[C@@H](C)O)[C@@H](C)O)C(C)C)C(C)C [Melittin]	12.53
Cercropin A [Ceropin A]	10.89
GKPRPYSPRPTSHPRPIRV [Drosocin]	12.22
HNP-I [HNP1]	8.28

Continued, values first:

pI	Compound
12.21	Apidaecin I
10.34	Bombinin
11.41	Magainin (MSI-344)
10.01	Tachyplesin I
